Experimental findings from publication PMC9061857, “A fluorogenic probe for granzyme B enables in-biopsy evaluation and screening of response to anticancer immunotherapies” (Nature Communications, 2022) are described below.

*1 amine or outer side, *2 acyl side, *3 side chain or, on linkers, in order; H or OH if unused. Primed or numbered codes have the meaning given here. Where no end group is shown, it is not given here. The star is where a group is joined. BODIPY(FL) = CC1=CC(C)=[N+]2C1=Cc1ccc(CCC(=O)*)n1[B-]2(F)F; Ethylenediamine = C(CN[*:2])N[*:1]; AMC = Cc1cc(=O)oc2cc(N*)ccc12; Dabcyl′ = quencher

Experiment [1] deals with co-cultures of E0771 cells and IL-2-activated CD8+ T cells. Description: Image-based phenotypic drug screen (H5 fluorescence). As to conditions: for fluorescence signals compared to IL-2 only controls: combination with IL-2.
Description: E0771 and CD8+ T cells were co-cultured for 2 days and then incubated with IL-2 (100 U mL^−1) and each individual drug at their respective working concentrations for 3 h (Table S5).
Wells received 100 U mL^−1 IL-2 (low IL-2) for T cell viability. […] Data as means ± SEM (n = 8). […] Data as means ± SD (n = 5). P-value from two-tailed t-tests.
E0771 (750 cells/well) and freshly isolated murine CD8+ T cells (6000 cells/well) were plated in 384-well plates as described above. After 2 days of co-culture at 37 °C, cells were further incubated with IL-2 alone (100 or 250 U mL^−1) or IL-2 (100 U mL^−1) in combination with drugs (Table S5) for 3 h. […] Briefly, nuclei were used as seeds to create a pseudo-cell area and GzmB-positive puncta were detected using a top-hat filter (pixel size: 10, circle shape) followed by an average filter (3 × 3 pixels).
Experiment [2] relates to E0771 cells alone or in co-culture with CD8+ T cells. In words: Hit validation of AZD5363 by flow cytometry. It is filed as cell-based, mouse. As to the method: (from 3 independent experiments) in E0771 cells alone (50,000 cells well-1) or in co-culture with CD8+ T cells (200,000 cells well-1) and treatment of AZD5363 (1 μM). concentration: 1,000 U mL-1. Excitation/emission wavelengths: 488 nm/525 nm. b) Representative flow cytometry contour plots (from 3 independent experiments; gating […]
(1 picture or pasted object on this page, not shown here) […]
strategy shown in Supplementary Figure 7) of E0771 cells (50,000 cells well-1) after co- […]
633/670 nm (for AF647-Annexin V). c) Percentages of E0771 cells that were double - […]
in a). Data presented as mean values±SEM (n=3). […]
obtained from ONE-ANOVA tests with multiple c omparisons. Source data in c provided
In general terms: In flow cytometry, cells or beads pass a laser one at a time.

A further experiment concerns the target T1, human GzmB (hGzmB) (Homo sapiens, UniProt P10144).
T1 construct: For active GzmB vs pro-GzmB, p < 0.0001
Description: HPLC conversion of fluorogenic peptides by hGzmB. In kind it is biochemical. To be noted: probe 25 μM (Ac-IEPD-AMC 50 μM), TRIS buffer, 37 °C, HPLC-UV. The procedure: Supplementary Figure 1. Reactivity of fluorogenic substrates against human GzmB and limits of detection. a) Reaction conversion rates (by HPLC-UV detection at 350 nm) for Ac-IEPD-AMC (50 μM) in TRIS buffer (see Methods) at 37 °C containing different concentrations of hGzmB. Data presented as mean values±SEM (n=3 independent biological experiments). b) Reaction conversion rates (by HPLC-UV detection at 500 nm) for the tetrapeptide T1 (25 μM) in TRIS buffer at 37 °C containing different concentrations of hGzmB. Data presented as mean values±SEM (3 independent biological experiments).
Source data provided as a Source Data file.
(1 picture or pasted object on this page, not shown here)
Supplementary Table 1. Chemical structures and reactivity of FRET-based tetrapeptides against human GzmB.
Code Structure Linker Quencher HPLC conversion HPLC conversion […]
Supplementary Table 2. Sequences and reactivity of FRET-based hexapeptides against […]
Code Peptide sequence HPLC conversion
H1 Ile-Glu-Pro-Asp-Ala-Gly 75%
H2 Ile-Glu-Pro-Asp-Ser-Gly 80%
H3 Ile-Glu-Pro-Asp-Ser-Leu 80%
H4 Ile-Glu-Pro-Asp-Trp-Leu 82%
H6 Ile-Glu-Pro-Asp-Trp-Arg 40%
H7 Ile-Glu-Pro-Asp-Arg-Leu 60%
H5m Ile-Glu-Phe-Asp-Ala-Leu 70%

Another experiment concerns recombinant mouse GzmB. In words: Reactivity against recombinant mouse GzmB (fluorescence). It is filed as biochemical. To be noted: probe 25 μM, 90 min, 37 °C, mouse pro-GzmB 100 nM pre-activated with cathepsin C. The procedure: and H5m (both at 25 μM) after incubation for 90 min at 37 °C with recombinant mouse
pro-GzmB (100 nM) after pre-activation with mouse cathepsin C (5.5 μg mL-1) for 4 h.
Excitation/emission wavelengths: 450 nm /510 nm. Data presented as mean values±SEM
(3 independent experiments with 3 technical replicates). Source data provided as a […]

The target in experiment [3] is human granzyme B (human) (UniProt P10144).
Sequence of human granzyme B (human) (P10144 21-247): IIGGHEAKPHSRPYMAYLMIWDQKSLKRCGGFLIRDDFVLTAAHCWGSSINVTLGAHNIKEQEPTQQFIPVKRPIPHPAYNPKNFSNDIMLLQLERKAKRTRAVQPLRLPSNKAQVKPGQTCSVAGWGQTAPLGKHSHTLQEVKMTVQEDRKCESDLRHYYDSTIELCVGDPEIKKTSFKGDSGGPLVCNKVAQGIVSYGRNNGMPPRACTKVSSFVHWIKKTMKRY
For experiment [4] the target is unchanged. The source holds these as a separate data set.
For experiment [5] the target is unchanged. The source holds these as a separate data set.
The target is the same in experiment [6]. The source holds these as a separate data set.

T1 sequence (P10144 21-247): as above

`CC(=O)O[C@@]12CO[C@@H]1C[C@H](O)[C@@]1(C)C(=O)[C@H](O)C3=C(C)[C@@H](OC(=O)[C@H](O)[C@@H](NC(=O)OC(C)(C)C)c4ccccc4)C[C@@](O)([C@@H](OC(=O)c4ccccc4)[C@H]21)C3(C)C` [C11, Docetaxel]: in experiment [1], the “fluorescence signals compared to IL-2 only controls” value was “Increased”.
Still for that read-out and setting: as for `C#CC[C@H](c1nc2cc(Cl)ccc2c(=O)n1Nc1ccccc1)N(CCCN)C(=O)c1cccc(Cl)c1F` [C12, ARQ621], the entry is “Increased”; as for `C/C(=C\c1csc(C)n1)[C@@H]1C[C@@H]2O[C@]2(C)CCC[C@H](C)[C@H](O)[C@@H](C)C(=O)C(C)(C)[C@@H](O)CC(=O)O1` [C13, Epothilone B], “Increased”.
On the same count and under the same terms, the same measure for `CO[C@@]12[C@H](COC(N)=O)C3=C(C(=O)C(C)=C(N)C3=O)N1C[C@@H]1N[C@@H]12` [C18, Mitomycin C]: “Increased”; for `Cn1nnc2c(C(N)=O)ncn2c1=O` [C20, Temozolomide]: “Increased”; for `CC(=O)N[C@@H](CSC(=O)[C@]1([C@@H](O)C(C)C)NC(=O)[C@H](C)[C@@H]1O)C(=O)O` [C30, Lactacystin]: “Increased”.
With AZD5363 [C5], in experiment [1], the “fluorescence signals compared to IL-2 only controls” value was “Increased”. The “H5 fluorescence staining in the screen” value in experiment [1] (drug 1 μM + IL-2 100 U mL^−1, 3 h) is recorded as “brightest H5 fluorescence staining”. Further, the “E0771 cells double-stained with probe H5 and AF647-Annexin V” value in experiment [2] (AZ only (AZD5363 1 μM), Data1) is 2%; in experiment [2] (AZ only (AZD5363 1 μM), Data2), 2%; in experiment [2] (AZ only (AZD5363 1 μM), Data3), 3%; in experiment [2] (IL-2+AZ (AZD5363 1 μM), co-culture with CD8+ T cells, Data1), 33%; in experiment [2] (IL-2+AZ (AZD5363 1 μM), co-culture with CD8+ T cells, Data2), 42%; in experiment [2] (IL-2+AZ (AZD5363 1 μM), co-culture with CD8+ T cells, Data3) it was 44%. Moreover, the “cancer cell death and H5 labeling, drug on its own” value in experiment [2] (AZD5363 1 μM alone, E0771 cells) is “did not induce significant cancer cell death”. In addition, in experiment [2] (AZD5363 1 μM with 100 U mL^−1 IL-2, CD8+ T cell-E0771 co-cultures), the “cancer cell death and H5 emission, drug with IL-2” value is reported as “caused significant cancer cell death”.
On to “IEFDAL [H5m, hexapeptide analogue containing phenylalanine, IEFDAL]”, for which the “HPLC conversion (20 nM hGzmB, 2 h)” value at human GzmB (hGzmB) was 70%. The Fluorescence fold increase in the experiment on recombinant mouse GzmB (Data 1) was found to be 5.6; with recombinant mouse GzmB (Data 2), 7.1; in the experiment on recombinant mouse GzmB (Data 3) it was 5.2; in the experiment on recombinant mouse GzmB (Data 4), 8.2; with recombinant mouse GzmB (Data 5), 10.5; in the experiment on recombinant mouse GzmB (Data 6), 7.7. In addition, the Fluorescence fold increase was 9.6 with recombinant mouse GzmB (Data 7), 8.2 in the experiment with recombinant mouse GzmB (Data 8) and 12.2 in the experiment on recombinant mouse GzmB (Data 9).

B1: probe H5 (peptide)
peptide: {BODIPY(FL)}-IEPDAL-{Dabcyl′}
With B1, in the experiment with human granzyme B (human) [3], the KM of cleavage by hGzmB (20 nM), Michaelis-Menten fit amounted to 9.6 µM; the Kcat of cleavage by hGzmB (20 nM), Michaelis-Menten fit was determined as 117 s⁻¹; the Kcat/KM of cleavage by hGzmB (20 nM), Michaelis-Menten fit came out at 1.2e+07 M⁻¹ s⁻¹. For the same molecule, in the experiment with human granzyme B (human) [4], the signal-to-background ratio of fluorescence emission (peptide 25 μM, hGzmB 20 nM) turned out to be 153 fold and the t50: time to reach 50-fold fluorescence increase (peptide 25 μM, hGzmB 20 nM) came to 7 min.

B2: hexapeptide H6 (peptide)
peptide: {BODIPY(FL)}-IEPDWR-{Dabcyl′}
The molecule B2 yielded a conversion (cleavage) by hGzmB with human granzyme B (human) [5] of 40%. Moreover, in the experiment with human granzyme B (human) [4], the signal-to-background ratio of fluorescence emission (peptide 25 μM, hGzmB 20 nM) was found to be 12 fold.

B3: hexapeptide H1 (peptide)
peptide: {BODIPY(FL)}-IEPDAG-{Dabcyl′}
B3 displayed a conversion (cleavage) after 2 h with 20 nM hGzmB in the experiment with human granzyme B (human) [5] of 75%.

B4: Ac-IEPD-AMC (peptide)
peptide: Ac-IEPD-{AMC}
SMILES: CC[C@H](C)[C@H](NC(C)=O)C(=O)N[C@@H](CCC(=O)O)C(=O)N1CCC[C@H]1C(=O)N[C@@H](CC(=O)O)C(=O)Nc1ccc2c(C)cc(=O)oc2c1
The molecule B4 yielded an enzymatic cleavage of Ac-IEPD-AMC by hGzmB (20 nM for 2 h: <1%; 100 nM for 24 h: 10%) with human granzyme B (human) [6] of 10%.

B5: tetrapeptide T1 (peptide)
peptide: {BODIPY(FL)}-IEPD-{Ethylenediamine-Dabcyl′}
Take B5: the enzymatic cleavage of T1 by hGzmB (20 nM for 2 h: <5%; 100 nM for 24 h: 14%) with human granzyme B (human) [6] stood at 14%. Moreover, in the experiment with human granzyme B (human) [3], the KM of cleavage by GzmB came out at 30.8 µM, the Kcat of cleavage by GzmB was determined as 2.3 s⁻¹ and the Kcat/KM of cleavage by GzmB came out at 59000 M⁻¹ s⁻¹.

B6: peptide H4 (peptide)
peptide: {BODIPY(FL)}-IEPDWL-{Dabcyl′}
For B6, the conversion (cleavage) by hGzmB in the experiment with human granzyme B (human) [5] is 82%.

B7: peptide H3 (peptide)
peptide: {BODIPY(FL)}-IEPDSL-{Dabcyl′}
B7 had a conversion (cleavage) by hGzmB with human granzyme B (human) [5] of 80%.

B8: hexapeptide H7 (peptide)
peptide: {BODIPY(FL)}-IEPDRL-{Dabcyl′}
For the molecule B8, the conversion (cleavage) by hGzmB in the experiment with human granzyme B (human) [5] turned out to be 60%.

B9: hexapeptide H2 (peptide)
peptide: {BODIPY(FL)}-IEPDSG-{Dabcyl′}
B9 registered a conversion (cleavage) after 2 h with 20 nM hGzmB in the experiment with human granzyme B (human) [5] of 80%.
